Measured values taken from patent publication US5488060A, “Substituted thiadiazoles, compositions containing them and their use as antimicrobial and marine antifouling agents” (The Dow Chemical Company, priority 1994, dated 1996).
In brackets after ≈: the same amount, converted by molar mass. Like-named read-outs stand apart in the source and are kept apart here.

What was measured:
Assay type in all cases: cell-based
[1] = tested on: Staphylococcus aureus (Sa); experiment: Minimum inhibitory concentration (MIC) in nutrient agar, Staphylococcus aureus
Experimental: (§1) The antimicrobial activity of the compounds of the present invention is set forth as the minimum inhibitory concentration (MIC) for the active compounds and is determined for nine (9) bacteria, using nutrient agar, and seven (7) yeast and fungi, using malt yeast agar. This determination is conducted using a one percent solution of the test compound prepared in a mixture of acetone and water.
(§2) Nutrient agar is prepared at pH 6.8, representing a neutral medium, and at pH 8.2, representing an alkaline medium. The nutrient agars are prepared by adding 23 g of nutrient agar to one-liter of deionized water. In addition, the alkaline medium is prepared by adjusting a 0.04M solution of N-[tris-(hydroxymethyl)methyl]glycine buffered deionized water with concentrated sodium hydroxide to a pH of 8.5.
(§3) The test tubes containing the agar are cooled in a water bath until the temperature of the agar is 48° C. Then, an appropriate amount of the one percent solution of the test compound is added (except in the controls where no compound is added) to the respective test tubes so that the final concentrations are 500, […], 100, 50, 25, 10, 5, 2.5, 1.0 and zero parts per million of the test compound in the agar, thus having a known concentration of test compound dispersed therein. The contents of the test tubes are then transferred to respective petri plates. After drying for 24 hours, the petri plates containing nutrient agar are inoculated with bacteria and those containing malt yeast agar are inoculated with yeast and fungi.
(§4) The inoculation with bacteria is accomplished by using the following procedure. Twenty-four hour-cultures of each of the bacteria are prepared by incubating the respective bacteria in tubes containing nutrient broth for 24 hours at 30° C. in a shaker. Dilutions of each of the 24 hour-cultures are made so that nine separate suspensions (one for each of the nine test bacteria) are made, each containing 10^8 colony forming units (CFU) per mL of suspension of a particular bacteria. Aliquots of 0.3 mL of each of the bacterial suspensions are used to fill the individual wells of Steer's Replicator. For each microbial suspension, 0.3 mL was used to fill three wells (i.e., three wells of 0.3 mL each) so that for the nine different bacteria, 27 wells are filled. The Steer's Replicator is then used to inoculate both the neutral and alkaline pH nutrient agar petri plates.
(§5) The inoculated petri plates are incubated at 30° C. for 48 hours and then read to determine if the test compound which is incorporated into the agar prevented growth of the respective bacteria.

[2] = tested on: Klebsiella pneumoniae (Kp); experiment: Minimum inhibitory concentration (MIC) in nutrient agar, Klebsiella pneumoniae
Experimental: as §1, §2, §3, §4, §5

[3] = tested on: Proteus vulgaris (Pv); experiment: Minimum inhibitory concentration (MIC) in nutrient agar, Proteus vulgaris
Experimental: as §1, §2, §3, §4, §5

[4] = tested on: Salmonella choleraesuis (Se); experiment: Minimum inhibitory concentration (MIC) in nutrient agar, Salmonella choleraesuis; settings: Salmonella enterica
Experimental: as §1, §2, §3, §4, §5

[5] = tested on: Candida albicans (Ca); experiment: Minimum inhibitory concentration (MIC) in malt yeast agar, Candida albicans; settings: 48 h, pH 5.5, read-out: Minimum Inhibitory Concentration, Ca
Experimental: as §1
(§6) Malt yeast agar is prepared at pH 5.5 by adding 3 g yeast extract and 45 g malt agar per liter of deionized water. The specific agar is dispensed in 30 mL aliquots into 25×200 mm test tubes, capped and autoclaved for 15 minutes at 115° C.
as §3
(§7) The inoculation with the yeast and fungi is accomplished as follows. Cultures of yeast and fungi are incubated for seven days on malt yeast agar at 30° C. These cultures are used to prepare suspensions by the following procedure. A suspension of each organism is prepared by adding 10 mL of sterile saline and 10 microliters of octylphenoxy polyethoxy ethanol to the agar slant of yeast or fungi. The sterile saline/octylphenoxy potyethoxy ethanol solution is then agitated with a sterile swab to suspend the microorganism grown on the slant. Each resulting suspension is diluted into sterile saline (1 part suspension: 9 parts sterile saline). Aliquots of these dilutions are placed in individual wells of Steer's Replicator and petri plates inoculated as previously described. The petri plates are incubated at 30° C. and read after 48 hours for yeast and 72 hours for fungi.

[6] = tested on: Saccharomyces cerevisiae (Sc); experiment: Minimum inhibitory concentration (MIC) in malt yeast agar, Saccharomyces cerevisiae; settings: pH 5.5, malt yeast agar, 30° C., 48 hours for yeast, read-out: Minimum Inhibitory Concentration, SC
Experimental: as §1, §6, §3, §7

[7] = tested on: Aureobasidium pullulan (Ap); experiment: Minimum inhibitory concentration (MIC) in malt yeast agar, Aureobasidium pullulan
Experimental: as §1, §6, §3, §7

[8] = tested on: Pseudomonas aeruginosa (PRD-10); experiment: Minimum inhibitory concentration (MIC) in nutrient agar, Pseudomonas aeruginosa PRD-10
Experimental: as §1, §2, §3, §4, §5

[9] = tested on: Enterobacter aerogenes (Ea); experiment: Minimum inhibitory concentration (MIC) in nutrient agar, Enterobacter aerogenes; settings: Klebsiella aerogenes
Experimental: as §1, §2, §3, §4, §5

[10] = tested on: Bacillus subtilis (Bs); experiment: Minimum inhibitory concentration (MIC) in nutrient agar, Bacillus subtilis
Experimental: as §1, §2, §3, §4, §5

[11] = tested on: Escherichia coli (Ec); experiment: Minimum inhibitory concentration (MIC) in nutrient agar, Escherichia coli
Experimental: as §1, §2, §3, §4, §5

[12] = tested on: Aspergillus niger (An); experiment: Minimum inhibitory concentration (MIC) in malt yeast agar, Aspergillus niger; settings: pH 5.5; malt yeast agar, 30° C., 72 hours for fungi; read-out: Minimum Inhibitory Concentration, An
Experimental: as §1, §6, §3, §7

[13] = tested on: Fusarium oxysporum (Fo); experiment: Minimum inhibitory concentration (MIC) in malt yeast agar, Fusarium oxysporum
Experimental: as §1, §6, §3, §7

[14] = tested on: Trichoderma viride (Tv); experiment: Minimum inhibitory concentration (MIC) in malt yeast agar, Trichoderma viride; settings: pH 5.5; malt yeast agar, 30° C., 72 hours for fungi; read-out: Minimum Inhibitory Concentration, Tv
Experimental: as §1, §6, §3, §7

[15] = tested on: Pseudomonas aeruginosa (Pa); experiment: Minimum inhibitory concentration (MIC) in nutrient agar, Pseudomonas aeruginosa; settings: 30° C., 48 hours, read-out: Minimum Inhibitory Concentration, Pa
Experimental: as §1, §2, §3, §4, §5

[16] = tested on: Penicillium chrysogenum (Pc); experiment: Minimum inhibitory concentration (MIC) in malt yeast agar, Penicillium chrysogenum
Experimental: as §1, §6, §3, §7

[17] = pH 6.8, nutrient agar, 30° C., 48 hours, read-out: Minimum Inhibitory Concentration, Sa
[18] = pH 6.8, nutrient agar, 30° C., 48 hours, read-out: Minimum Inhibitory Concentration, Kp
[19] = 48 h, pH 8.2, read-out: Minimum Inhibitory Concentration, Ea
[20] = 48 h, pH 6.8, read-out: Minimum Inhibitory Concentration, Ec

SMILES: N#CSc1nsnc1-c1ccc(F)cc1 [Example V, 4-(4-Fluorophenyl)-3-thiocyanato-1,2,5-thiadiazole]
- MIC [1, 17]: 25 µg/mL (≈ 105 µM)
- MIC ([1]; pH 8.2, nutrient agar, 30° C., 48 hours, read-out: Minimum Inhibitory Concentration, Sa): 50 µg/mL (≈ 211 µM)
- MIC [2, 18]: 100 µg/mL (≈ 421 µM)
- MIC ([2]; pH 8.2, nutrient agar, 30° C., 48 hours, read-out: Minimum Inhibitory Concentration, Kp): 100 µg/mL (≈ 421 µM)
- MIC ([3]; pH 6.8, nutrient agar, 30° C., 48 hours, read-out: Minimum Inhibitory Concentration, Pv): 25 µg/mL (≈ 105 µM)
- MIC ([3]; pH 8.2, nutrient agar, 30° C., 48 hours, read-out: Minimum Inhibitory Concentration, Pv): 100 µg/mL (≈ 421 µM)
- MIC ([4]; pH 6.8, nutrient agar, 30° C., 48 hours, read-out: Minimum Inhibitory Concentration, SC): 100 µg/mL (≈ 421 µM)
- MIC ([4]; pH 8.2, nutrient agar, 30° C., 48 hours, read-out: Minimum Inhibitory Concentration, SC): 250 µg/mL (≈ 1050 µM)
- MIC [5]: 25 µg/mL (≈ 105 µM)
- MIC [6]: 5 µg/mL (≈ 21.1 µM)
- MIC ([7]; pH 5.5, read-out: Minimum Inhibitory Concentration, Ap): 2.5 µg/mL (≈ 10.5 µM)
- MIC ([8]; pH 6.8, nutrient agar, 30° C., 48 hours, read-out: Minimum Inhibitory Concentration, PRD): 250 µg/mL (≈ 1050 µM)
- MIC ([8]; pH 8.2, nutrient agar, 30° C., 48 hours, read-out: Minimum Inhibitory Concentration, PRD): 250 µg/mL (≈ 1050 µM)
- MIC [9, 19]: 500 µg/mL (≈ 2110 µM)
- MIC ([9]; pH 6.8, nutrient agar, 30° C., 48 hours, read-out: Minimum Inhibitory Concentration, Ea): 250 µg/mL (≈ 1050 µM)
- MIC ([10]; pH 6.8, nutrient agar, 30° C., 48 hours, read-out: Minimum Inhibitory Concentration, Bs): < 10 µg/mL
- MIC ([10]; pH 8.2, nutrient agar, 30° C., 48 hours, read-out: Minimum Inhibitory Concentration, Bs): 50 µg/mL (≈ 211 µM)
- MIC [11, 20]: 50 µg/mL (≈ 211 µM)
- MIC ([11]; pH 8.2, nutrient agar, 30° C., 48 hours, read-out: Minimum Inhibitory Concentration, Ec): 250 µg/mL (≈ 1050 µM)
- MIC [12]: 5 µg/mL (≈ 21.1 µM)
- MIC ([13]; pH 5.5, malt yeast agar, 30° C., 72 hours for fungi, read-out: Minimum Inhibitory Concentration, Fo): 10 µg/mL (≈ 42.1 µM)
- MIC [14]: 25 µg/mL (≈ 105 µM)
- MIC ([15]; pH 6.8, nutrient agar): 100 µg/mL (≈ 421 µM)
- MIC ([15]; pH 8.2, nutrient agar): 100 µg/mL (≈ 421 µM)
- MIC ([16]; 72 h, pH 5.5, read-out: Minimum Inhibitory Concentration, PC): 2.5 µg/mL (≈ 10.5 µM)

SMILES: COc1ccc(-c2nsnc2SC#N)cc1 [Example VIII, 4-(4-Methoxyphenyl)-3-thiocyanato-1,2,5-thiadiazole]
- MIC ([1]; 48 h, pH 8.2, read-out: Minimum Inhibitory Concentration, Sa): > 500 µg/mL
- MIC [1, 17]: > 500 µg/mL
- MIC ([2]; 48 h, pH 8.2, read-out: Minimum Inhibitory Concentration, Kp): > 500 µg/mL
- MIC [2, 18]: > 500 µg/mL
- MIC ([3]; 48 h, pH 6.8, read-out: Minimum Inhibitory Concentration, Pv): > 500 µg/mL
- MIC ([3]; 48 h, pH 8.2, read-out: Minimum Inhibitory Concentration, Pv): > 500 µg/mL
- MIC ([4]; 48 h, pH 6.8, read-out: Minimum Inhibitory Concentration, SC): > 500 µg/mL
- MIC ([4]; 48 h, pH 8.2, read-out: Minimum Inhibitory Concentration, SC): > 500 µg/mL
- MIC [5]: 25 µg/mL (≈ 100 µM)
- MIC [6]: 9 µg/mL (≈ 36.1 µM)
- MIC ([7]; pH 5.5, malt yeast agar, 30° C., read-out: Minimum Inhibitory Concentration, Ap): 9 µg/mL (≈ 36.1 µM)
- MIC ([8]; 48 h, pH 6.8, read-out: Minimum Inhibitory Concentration, PRD): > 500 µg/mL
- MIC ([8]; 48 h, pH 8.2, read-out: Minimum Inhibitory Concentration, PRD): > 500 µg/mL
- MIC ([9]; 48 h, pH 6.8, read-out: Minimum Inhibitory Concentration, Ea): > 500 µg/mL
- MIC [9, 19]: > 500 µg/mL
- MIC ([10]; 48 h, pH 6.8, read-out: Minimum Inhibitory Concentration, Bs): 100 µg/mL (≈ 401 µM)
- MIC ([10]; 48 h, pH 8.2, read-out: Minimum Inhibitory Concentration, Bs): > 500 µg/mL
- MIC [11, 20]: > 500 µg/mL
- MIC ([11]; 48 h, pH 8.2, read-out: Minimum Inhibitory Concentration, Ec): > 500 µg/mL
- MIC [12]: 100 µg/mL (≈ 401 µM)
- MIC ([13]; 72 h, pH 5.5, read-out: Minimum Inhibitory Concentration, Fo): 50 µg/mL (≈ 201 µM)
- MIC [14]: 9 µg/mL (≈ 36.1 µM)
- MIC ([15]; pH 6.8, nutrient agar): > 500 µg/mL
- MIC ([15]; pH 8.2, nutrient agar): > 500 µg/mL
- MIC ([16]; pH 5.5, malt yeast agar, 30° C., 72 hours for fungi, read-out: Minimum Inhibitory Concentration, PC): > 500 µg/mL
